According to the supplement of paper PMC11061612:

Assays:
Carboplatin = compound: C1CC(C1)(C(=O)[O-])C(=O)[O-].N.N.[Pt+2] [Carboplatin]; details: max 10 µM
How it was run: (§1)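 Cancer cell lines in 1536-well plates (7.5 μl DMEM/F12 or RPMI, 10% FBS) were held 24 hours at 37°C and 5% CO2 and then dosed for 72 hours at a final DMSO of typically 0.2%. Viability was taken from CellTiter-Glo 2.0 luminescence, scaled between blank-well and DMSO-well means. Curves were fitted as two-parameter logistic models with a non-linear mixed effects model, from which the single-agent IC50 was taken.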

AZD5363 = compound: C1CN(CCC1(C(=O)N[C@@H](CCO)C2=CC=C(C=C2)Cl)N)C3=NC=NC4=C3C=CN4 [AZD5363]; details: max 10 µM
How it was run: as §1

AZD1775 = compound: C=CCn1c(=O)c2cnc(Nc3ccc(N4CCN(C)CC4)cc3)nc2n1-c1cccc(C(C)(C)O)n1 [AZD1775]; details: max 3 µM
How it was run: as §1

Trametinib = compound: CC(=O)Nc1cccc(-n2c(=O)n(C3CC3)c(=O)c3c(Nc4ccc(I)cc4F)n(C)c(=O)c(C)c32)c1 [Trametinib]; details: max 1 µM
How it was run: as §1

Paclitaxel = compound: CC(=O)O[C@H]1C(=O)[C@@]2(C)[C@H]([C@H](OC(=O)c3ccccc3)[C@]3(O)C[C@H](OC(=O)[C@H](O)[C@@H](NC(=O)c4ccccc4)c4ccccc4)C(C)=C1C3(C)C)[C@]1(OC(C)=O)CO[C@@H]1C[C@@H]2O [Paclitaxel]; details: max 3 µM
How it was run: as §1

Palbociclib = compound: CC(=O)c1c(C)c2cnc(Nc3ccc(N4CCNCC4)cn3)nc2n(C2CCCC2)c1=O [Palbociclib]; details: max 10 µM
How it was run: as §1

AZD1390 = compound: CC(C)n1c(=O)n(C)c2cnc3cc(F)c(-c4ccc(OCCCN5CCCCC5)nc4)cc3c21 [AZD1390]; details: max 0.3 µM
How it was run: as §1

Venetoclax = compound: CC1(C)CCC(CN2CCN(c3ccc(C(=O)NS(=O)(=O)c4ccc(NCC5CCOCC5)c([N+](=O)[O-])c4)c(Oc4cnc5[nH]ccc5c4)c3)CC2)=C(c2ccc(Cl)cc2)C1 [Venetoclax]; details: max 1 µM
How it was run: as §1

Dasatinib = compound: CC1=C(C(=CC=C1)Cl)NC(=O)C2=CN=C(S2)NC3=CC(=NC(=N3)C)N4CCN(CC4)CCO [Dasatinib]; details: max 2 µM
How it was run: as §1

SG3199 = compound: CC1=CN2[C@@H](C1)C=NC3=CC(=C(C=C3C2=O)OC)OCCCCCOC4=C(C=C5C(=C4)N=C[C@@H]6CC(=CN6C5=O)C)OC [SG3199]; details: max 0.001 µM
How it was run: as §1

AZD2811 = compound: CCN(CCO)CCCOc1ccc2c(Nc3cc(CC(=O)Nc4cccc(F)c4)[nH]n3)ncnc2c1 [AZD2811]; details: max 1 µM
How it was run: as §1

SN-38 = compound: CCc1c2c(nc3ccc(O)cc13)-c1cc3c(c(=O)n1C2)COC(=O)[C@]3(O)CC [SN-38]; details: max 0.3 µM
How it was run: as §1

AZD0156 = compound: CN(C)CCCOc1ccc(-c2ccc3ncc4c(c3c2)n(C2CCOCC2)c(=O)n4C)cn1 [AZD0156]; details: max 3 µM
How it was run: as §1

AZD4320 = compound: CN(CC[C@H](CSC1=CC=CC=C1)NC2=C(C=C(C=C2)S(=O)(=O)NC(=O)C3=CC=C(C=C3)N4CCC(CC4)[C@H](C5=CC=CC=C5C6=CC=C(C=C6)Cl)O)S(=O)(=O)C(F)(F)F)CCO [AZD4320]; details: max 1 µM
How it was run: as §1

Alisertib = compound: COc1cc(Nc2ncc3c(n2)-c2ccc(Cl)cc2C(c2c(F)cccc2OC)=NC3)ccc1C(=O)O [Alisertib]; details: max 10 µM
How it was run: as §1

Etoposide = compound: COc1cc([C@@H]2c3cc4c(cc3[C@@H](O[C@@H]3O[C@@H]5CO[C@@H](C)O[C@H]5[C@H](O)[C@H]3O)[C@H]3COC(=O)[C@H]23)OCO4)cc(OC)c1O [Etoposide]; details: max 10 µM
How it was run: as §1

Gefitinib = compound: COc1cc2ncnc(Nc3ccc(F)c(Cl)c3)c2cc1OCCCN1CCOCC1 [Gefitinib]; details: max 10 µM
How it was run: as §1

Prexasertib = compound: COc1cccc(OCCCN)c1-c1cc(Nc2cnc(C#N)cn2)n[nH]1 [Prexasertib]; details: max 1 µM
How it was run: as §1

Doxorubicin = compound: COc1cccc2c1C(=O)c1c(O)c3c(c(O)c1C2=O)C[C@@](O)(C(=O)CO)C[C@@H]3O[C@H]1C[C@H](N)[C@H](O)[C@H](C)O1 [Doxorubicin]; details: max 1 µM
How it was run: as §1

AZD5153 = compound: COc1nnc2ccc(N3CCC(c4ccc(OCCN5CCN(C)C(=O)[C@H]5C)cc4)CC3)nn12 [AZD5153]; details: max 1 µM
How it was run: as §1

Lapatinib = compound: CS(=O)(=O)CCNCc1ccc(-c2ccc3ncnc(Nc4ccc(OCc5cccc(F)c5)c(Cl)c4)c3c2)o1 [Lapatinib]; details: max 10 µM
How it was run: as §1

AZD8186 = compound: C[C@@H](Nc1cc(F)cc(F)c1)c1cc(C(=O)N(C)C)cc2c(=O)cc(N3CCOCC3)oc12 [AZD8186]
How it was run: as §1

Crizotinib = compound: C[C@@H](Oc1cc(-c2cnn(C3CCNCC3)c2)cnc1N)c1c(Cl)ccc(F)c1Cl [Crizotinib]; details: max 10 µM
How it was run: as §1

Savolitinib = compound: C[C@@H](c1ccc2nccn2c1)n1nnc2ncc(-c3cnn(C)c3)nc21 [Savolitinib]; details: max 1 µM
How it was run: as §1

AZD6738 = compound: C[C@@H]1COCCN1C2=NC(=NC(=C2)C3(CC3)[S@](=N)(=O)C)C4=C5C=CNC5=NC=C4 [AZD6738]; details: max 10 µM
How it was run: as §1

AZD5991 = compound: Cc1c2c(nn1C)CSCc1cc(n(C)n1)CSc1cc(c3ccccc3c1)OCCCc1c(C(=O)O)n(C)c3c-2c(Cl)ccc13 [AZD5991]; details: max 1 µM
How it was run: as §1

AZD7648 = compound: Cc1cc2ncnn2cc1Nc1ncc2c(n1)n(C1CCOCC1)c(=O)n2C [AZD7648]; details: max 10 µM
How it was run: as §1

Taselisib = compound: Cc1nc(-c2cn3c(n2)-c2ccc(-c4cnn(C(C)(C)C(N)=O)c4)cc2OCC3)n(C(C)C)n1 [Taselisib]; details: max 10 µM
How it was run: as §1

Selumetinib = compound: Cn1cnc2c(F)c(Nc3ccc(Br)cc3Cl)c(C(=O)NOCCO)cc21 [Selumetinib]; details: max 10 µM
How it was run: as §1

SRA737 = compound: N#Cc1cnc(Nc2cc(NC[C@H]3CNCCO3)c(C(F)(F)F)cn2)cn1 [SRA737]; details: max 10 µM
How it was run: as §1

MK-2206 = compound: NC1(c2ccc(-c3nc4ccn5c(=O)[nH]nc5c4cc3-c3ccccc3)cc2)CCC1 [MK-2206]; details: max 10 µM
How it was run: as §1

Gemcitabine = compound: Nc1ccn([C@@H]2O[C@H](CO)[C@@H](O)C2(F)F)c(=O)n1 [Gemcitabine]; details: max 0.3 µM
How it was run: as §1

[1] = compound: O=C(Nc1ccc2[nH]nc(-c3ccncc3)c2c1)[C@@H]1CCN(CC(=O)N2CCN(c3ccc(-c4ncccn4)cc3)CC2)C1; details: max 5 µM
How it was run: as §1

Olaparib = compound: O=C(c1cc(Cc2n[nH]c(=O)c3ccccc23)ccc1F)N1CCN(C(=O)C2CC2)CC1 [Olaparib]; details: max 10 µM
How it was run: as §1

5-Fluorouracil = compound: O=c1[nH]cc(F)c(=O)[nH]1 [5-Fluorouracil]; details: max 20 µM
How it was run: as §1

Capivasertib = compound: C1CN(CCC1(C(=O)N[C@@H](CCO)C2=CC=C(C=C2)Cl)N)C3=NC=NC4=C3C=CN4 [Capivasertib]; details: max 10 µM
How it was run: as §1

Cell Line	IC50, cell viability 72 h (Carboplatin) [nM]	IC50, cell viability 72 h (AZD5363) [nM]	IC50, cell viability 72 h (AZD1775) [nM]	IC50, cell viability 72 h (Trametinib) [nM]	IC50, cell viability 72 h (Paclitaxel) [nM]	IC50, cell viability 72 h (Palbociclib) [nM]	IC50, cell viability 72 h (AZD1390) [nM]	IC50, cell viability 72 h (Venetoclax) [nM]	IC50, cell viability 72 h (Dasatinib) [nM]	IC50, cell viability 72 h (SG3199) [nM]	IC50, cell viability 72 h (AZD2811) [nM]	IC50, cell viability 72 h (SN-38) [nM]	IC50, cell viability 72 h (AZD0156) [nM]	IC50, cell viability 72 h (AZD4320) [nM]	IC50, cell viability 72 h (Alisertib) [nM]	IC50, cell viability 72 h (Etoposide) [nM]	IC50, cell viability 72 h (Gefitinib) [nM]	IC50, cell viability 72 h (Prexasertib) [nM]	IC50, cell viability 72 h (Doxorubicin) [nM]	IC50, cell viability 72 h (AZD5153) [nM]	IC50, cell viability 72 h (Lapatinib) [nM]	IC50, cell viability 72 h (AZD8186; max 10 µM) [nM]	IC50, cell viability 72 h (Crizotinib) [nM]	IC50, cell viability 72 h (Savolitinib) [nM]	IC50, cell viability 72 h (AZD6738) [nM]	IC50, cell viability 72 h (AZD5991) [nM]	IC50, cell viability 72 h (AZD7648) [nM]	IC50, cell viability 72 h (Taselisib) [nM]	IC50, cell viability 72 h (Selumetinib) [nM]	IC50, cell viability 72 h (SRA737) [nM]	IC50, cell viability 72 h (MK-2206) [nM]	IC50, cell viability 72 h (Gemcitabine) [nM]	IC50, cell viability 72 h [1] [nM]	IC50, cell viability 72 h (Olaparib) [nM]	IC50, cell viability 72 h (5-Fluorouracil) [nM]	IC50, cell viability 72 h (Capivasertib) [nM]	IC50, cell viability 72 h (AZD8186; max 3 µM) [nM]
BICR22 (Oral Cavity Carcinoma)	> 10000	> 10000	1850	> 1000	< 3	> 10000	> 300	> 1000	> 2000	> 1	> 1000	6.59	> 3000	> 1000	6990	3150	> 10000	54.5	158	> 1000	> 10000	> 10000	> 10000	> 1000	3410	> 1000	> 10000	928	> 10000	> 10000	> 10000	12.1	> 5000	> 10000	1850	–	–
CAPAN-2 (Pancreatic Carcinoma)	> 10000	> 10000	2700	> 1000	> 3000	> 10000	> 300	> 1000	210	> 1	> 1000	> 300	> 3000	> 1000	> 10000	> 10000	> 10000	646	> 1000	> 1000	> 10000	> 10000	> 10000	> 1000	> 10000	> 1000	> 10000	> 10000	> 10000	> 10000	> 10000	> 300	> 5000	> 10000	> 20000	–	–
FU97 (Gastric Carcinoma)	> 10000	> 10000	> 3000	–	> 3000	> 10000	> 300	> 1000	> 2000	> 1	> 1000	> 300	> 3000	> 1000	> 10000	> 10000	> 10000	> 1000	> 1000	288	> 10000	> 10000	> 10000	> 1000	> 10000	> 1000	> 10000	> 10000	> 10000	> 10000	> 10000	> 300	> 5000	> 10000	> 20000	–	–
HCC1954 (Breast Carcinoma)	–	–	1970	> 1000	–	> 10000	> 300	> 1000	> 2000	> 1	> 1000	> 300	> 3000	> 1000	> 10000	–	> 10000	59.8	> 1000	> 1000	6260	–	> 10000	> 1000	> 10000	133	> 10000	122	> 10000	–	> 10000	–	–	> 10000	–	3240	> 3000
LN-405 (Glioblastoma)	–	–	> 3000	> 1000	–	> 10000	> 300	> 1000	> 2000	> 1	> 1000	> 300	> 3000	> 1000	> 10000	–	> 10000	> 1000	> 1000	> 1000	> 10000	–	> 10000	> 1000	> 10000	> 1000	> 10000	6550	> 10000	–	> 10000	–	–	> 10000	–	> 10000	> 3000
NCI-H2591 (Mesothelioma)	–	–	> 3000	> 1000	–	> 10000	> 300	> 1000	> 2000	> 1	> 1000	71.7	> 3000	> 1000	> 10000	–	> 10000	> 1000	> 1000	> 1000	> 10000	–	> 10000	> 1000	> 10000	> 1000	> 10000	> 10000	> 10000	–	> 10000	–	–	> 10000	–	> 10000	> 3000
